In EP3892734B1, “SCREENING METHODS AND THERAPEUTIC APPLICATIONS BASED ON BACTERIAL MOTILITY INHIBITION” (Ludwig-Maximilians-Universität München, priority 2020, dated 2021):
≈ marks a conversion by molar mass, not a printed value. Where “and” joins values, the source holds several entries; their conditions need not be identical. Equal entries are not always repeated. Entries after “also recorded” stand apart in the source; their conditions may differ. Where two headings read alike, the source gives them in different places.

Key:
[1] = system: H. pylori flaA-luciferase reporter strain N6; assay: microbe, parasite or virus in culture; assay type: cell-based, Helicobacter pylori; settings: for Weak activity (% of non-inhibited control): flaA-luciferase reporter strain N6, IC50 not determined; for inhibitory activity in luciferase reporter assay: result in words
Text: The H. pylori flaA promoter was fused with a luciferase operon (luxAB) from Vibrio harveyi in a H. pylori suicide plasmid (Niehus, Ye, Suerbaum, & Josenhans, 2002). The flaA reporter fusion was recombined into the H. pylori chromosome and the resulting strain tested to be strongly luminescence positive. The reporter strain (N6 flaA-lux4B) activated luminescence to about 40,000 to 60,000 counts per second using luciferase substrate at an OD600 of 0.8 (mid-log phase) in liquid culture. The negative control value of a non-reporter strain or reporter strain without luminescence substrate was close to zero. […] The Z-Factor (Zhang et al., 1999) determined for the assay with various bacterial inhibitors measured in quadruplicates or triplicates was routinely between 0.6 and 0.7, with a confidence interval of 95%.
H. pylori luminescence reporter strains were passaged on blood agar plates less than 22 hours prior to the start of the experiment. The passage number for these assays was not higher than five to preserve the strain's properties and genetic stability. Luciferase reaction buffer was prepared as follows: 50 mM disodium phosphate (Na2HPO4) and 2% BSA were dissolved in HPLC water, filter sterilized, aliquoted and frozen at - 20°C.
Bacteria were harvested in brain-heart infusion medium (BHI, 3% yeast extract with 5% horse serum added) and adjusted to an OD600 of 0.8 at room temperature. 50 µl of the bacterial suspension were added per well of a 96 well plate (non-binding, Greiner Bio-One 655901). 2 µl of each of the test compounds (provided as a 10 mM DMSO solution) were added to the sample wells. The same amount of pure, diluted DMSO was added to the control wells for a concentration of a maximum of 4% DMSO per well, since higher concentrations will interfere with metabolic functions of H. pylori and cause false negative results. The microwell plate was incubated inside a sterile sealed PM Gas Bag (BIOLOG #3032) together with a CampyGen Compact pack (Oxoid) to generate microaerobic conditions at 37°C and with shaking at 175 rpm for 4 h.
Shortly before taking the measurement, the luciferase substrate was prepared by diluting the luminescence substrate decanal (10% stock, Sigma Aldrich) at a 1 :2,000 dilution in luciferase reaction buffer. 60 µl of the substrate were added per well of a white 96 microwell plate (Thermo Scientific #236105) without the lid.
For the final luciferase measurement, 10 µl of bacterial solution were transferred with the epMotion 96 (Eppendorf) simultaneously to the wells containing the luciferase substrate and incubated on a microwell plate shaker for 10 s to lyse the bacteria. The measurements were recorded with a Perkin Elmer Victor 3/WNallac 1420 plate reader (luminometry, measurement time: 0.5 sec) and integrated to counts per sec. For the background measurement, 10 µl sterile medium containing 4% DMSO was added to the wells. For each measurement, at least four luciferase reporter positive control wells (without inhibitory compound) and four negative control wells (background without bacteria) were run on the same day and under the same assay conditions in parallel.

H. pylori N6 = assay: vitality / metabolic (respiratory inhibition) counter-screen; assay type: cell-based, Helicobacter pylori; settings: > 100% indicates no inhibition
H. pylori = assay: therapeutic treatment in chronic H. pylori mouse infection model (cfu counts, cagL PCR); assay type: in vivo, C57B/L6 mice
Method: 6-8 weeks old specific pathogen-free C57B/L6 mice were obtained from Charles River Laboratories. They were acclimatized to the new surroundings for one week before starting the assays. For the whole duration of the experiment, mice had access to sterile chow and sterile water ad libitum. In week one of the experiment, H. pylori was administered at 3×10^8 bacteria per mouse per inoculum (100 µl) on two days with one day of break in between. The proof-of-principle treatment was started two weeks after the end of the inoculation week, assuming a stable infection at this time point. The mice were treated in separate groups (8-14 animals per group), as outlined in the results, with compound(s), antibiotic (metronidazole at 14.3 mg/kg/day), a combination of both antibiotic and compound (for concentrations, see Results), or mock-treated once daily over seven consecutive days by intra-gastric gavage. After the treatment week, the mice were kept for another two weeks under normal housing and feeding conditions with sterilized chow and sterile water ad libitum. At the end of the assay period (week seven), the mice were necropsied by cervical dislocation under CO2 anesthesia. The animal experiments were authorized under German federal law by the LAVES (Lower Saxony Government Authority).
Then, BL2 was further tested for therapeutic efficacy in a mouse model of chronic H. pylori infection (Fig. 5). Six groups of mice (10 mice per group in each of the four infected and/or treated groups, and six mice in both of the control groups) were established in this mouse treatment trial. For the treatment groups, mice were infected in week one (using ca. 3×10^8 bacteria per animal; Methods), and the chronic infection was manifested for two more weeks. The once-daily treatment (intragastric gavage) started in week four on seven consecutive days. For the treatment groups, three H. pylori-infected groups were evaluated in parallel. One dose of treatment was given daily.
Group one was treated with metronidazole (14.3 mg/kg/day) only, an established anti-H. pylori antibiotic. The antibiotic concentration corresponds to concentrations routinely used in human treatment. Group two was treated with metronidazole (dosed at 14.3 mg/kg/day) and BL2 (10 mg/kg/day) in combination, and group three received BL2 (10 mg/kg/day) only. In addition, one infected and mock-treated group was kept as positive control, and two mock-infected groups were set aside, one for administering BL2 only (10 mg/kg/day; microbiota compound control) and one which was mock-infected and mock-treated (microbiota null control).
The read-out of successful treatment was the reduction of colony-forming units (cfus) of bacteria in infected and treated mice, over infected, non-treated, mice, at the end of the experiment. […] All mice in the infected positive control group were colonized (both cfu counts and PCR-positive), although the cfu counts in three positive animals were rather low.

[2] = Helicobacter pylori, H. pylori flaA-luciferase reporter strain N6, Table 6
[3] = H. pylori flaA-luciferase reporter strain N6, Table 6

Row | Compound | inhibitory activity in luciferase reporter assay [1] | IC50 [1, 2] | further results
1 | Cc1ccc(-n2c(=O)c(Br)c(CSCc3c(Br)c(=O)n(-c4ccc(C)cc4)n3C)n2C)cc1 [DJ-14, 5,5'-(thiobis(methylene))bis(4-bromo-1-methyl-2-(p-tolyl)-1,2-dihydro-3H-pyrazol-3-one)] | detectable yet weaker inhibitory activity |  | Weak activity (% of non-inhibited control) [1]: Weak activity (+/- 90 % of control) (IC50 not determined)
2 | Cn1c(CSC(=N)N)c(Br)c(=O)n1-c1ccccc1 [DJ-1, (4-bromo-2-methyl-5-oxo-1-phenyl-2,5-dihydro-1H-pyrazol-3-yl)methyl carbamimidothioate] |  | < 4.5 µg/mL | Metabolic assay (% of control) (H. pylori N6): 107,7 % of control; Luciferase assay (% of control) ([1]; H. pylori screen): 1,4 % of control; IC50 ([1]; Helicobacter pylori, read-out: IC50 (luciferase assay), luciferase flagellar reporter assay, Table 3): 3.05 µg/mL and 10.3 µM
3 | CC1(C)S[C@@H]2[C@H](NC(=O)[C@H](N)c3ccccc3)C(=O)N2[C@H]1C(=O)O [ampicillin, reference compound] | did not alter the readings in the luciferase reporter assay |  | 
4 | Cn1c(CSC(=N)N)c(Br)c(=O)n1-c1ccc(-c2ccccc2)cc1 [DJ-8, (1-([1',1"-biphenyl]-4'-yl)-4-bromo-2-methyl-5-oxo-2,5-dihydro-1H-pyrazol-3-yl)methyl carbamimidothioate] |  | < 4.5 µg/mL | 
5 | Cn1c(CN)c(Br)c(=O)n1-c1ccccc1 [DJ-4, 5-(aminomethyl)-4-bromo-1-methyl-2-phenyl-1,2-dihydro-3H-pyrazol-3-one] | No inhibitory activity was detectable |  | IC50 [1, 3]: No IC50
6 | C=C(C)[C@H]1Cc2c(ccc3c2O[C@@H]2COc4cc(OC)c(OC)cc4[C@@H]2C3=O)O1 [rotenone, reference compound] | inhibited the luminescence reporter activity |  | 
7 | Cn1c(CS)c(Br)c(=O)n1-c1ccccc1 [DJ-2, 4-bromo-5-(mercaptomethyl)-1-methyl-2-phenyl-1,2-dihydro-3H-pyrazol-3-one] |  |  | IC50 [1, 3]: 0.44 µg/mL (≈ 1.47 µM)
8 | Cn1c(CSC(=N)N)c(Br)c(=O)n1-c1ccc(Cl)cc1 [DJ-9, (4-bromo-1-(4'-chlorophenyl)-2-methyl-5-oxo-2,5-dihydro-1H-pyrazol-3-vl)methyl carbamimidothioate] |  | < 4.5 µg/mL | 
9 | CC(C)c1ccc(-n2c(=O)c(Br)c(CSC(=N)N)n2C)cc1 [DJ-7, (4-bromo-1-(4'-isopropylphenyl)-2-methyl-5-oxo-2,5-dihydro-1H-pyrazol-3-vl)methyl carbamimidothioate] |  | < 4.5 µg/mL | 
10 | Cc1cc(C)cc(-n2c(=O)c(Br)c(CSC(=N)N)n2C)c1 [DJ-6, (4-bromo-1-(3',5'-dimethylphenyl)-2-methyl-5-oxo-2,5-dihydro-1H-pyrazol-3-yl)methyl carbamimidothioate] |  | < 4.5 µg/mL | 
11 | Cn1c(CSC(=N)N)c(Br)c(=O)n1-c1ccc(C(F)(F)F)cc1 [DJ-10, (4-bromo-2-methyl-5-oxo-1-(4'-(trifluoromethyl)phenyl)-2,5-dihvdro-1H-pyrazol-3-yl)methyl carbamimidothioate] |  | 10.8 µg/mL (≈ 26.5 µM) | 
12 | carbonyl cyanide m-chlorophenyl hydrazine [CCCP, reference compound] | inhibited the luminescence reporter activity |  | 
13 | CCn1c(CSC(=N)N)c(Br)c(=O)n1-c1ccccc1 [DJ-11] |  | 10.6 µg/mL (≈ 29.7 µM) | 
14 | Cn1c(CSCCO)c(Br)c(=O)n1-c1ccccc1 [DJ-3, 4-bromo-5-(((2-hydroxyethyl)thio)methyl)-1-methyl-2-phenyl-1,2-dihydro-3H-pyrazol-3-one] | No inhibitory activity was detectable |  | IC50 [1, 3]: No IC50
15 | Cc1ncc([N+](=O)[O-])n1CCO [metronidazole, reference compound] |  |  | reduction of colony-forming units (cfus) / bacterial loads in stomach (H. pylori; BL2 10 mg/kg/day, metronidazole 14.3 mg/kg/day, once daily, 7 days, intragastric gavage, versus infected control): significantly reduced bacterial counts; also recorded: left no bacterial counts; gene-specific (cagL) PCR signal in stomach homogenates (H. pylori; two weeks post-treatment): strong residual bacterial load; also recorded: all mice still had detectable specific bacterial (PCR) signal; also recorded: still readily detectable by PCR
16 | Cc1ccc(-n2c(=O)c(Br)c(CSC(=N)N)n2C)cc1 [DJ-5, (4-bromo-2-methyl-5-oxo-1-(p-tolyl)-2,5-dihydro-1H-pyrazol-3-yl)methyl carbamimidothioate] |  | < 4.5 µg/mL | 
17 | CCn1c(CS)c(Br)c(=O)n1-c1ccccc1 [DJ-12] |  | < 4.5 µg/mL | 
18 | Cn1c(CSC(=N)N)c(Br)c(=O)n1-c1ccccn1 [DJ-13] | detectable yet weaker inhibitory activity |  | Weak activity (% of non-inhibited control) [1]: Weak activity (+/- 50 % of non-inhibited control) (IC50 not determined)
